Here are results for 20 compounds from paper PMC7876453, “Targeting Indoleamine 2,3-Dioxygenase in Cancer Models Using the Novel Small Molecule Inhibitor NTRC 3883-0” (Frontiers in Immunology, 2021).

The target of experiment [1] is T1, human IDO1 (Homo sapiens, UniProt P14902).
T1 construct: Full-length recombinant human and mouse IDO1 were expressed in Escherichia coli with a hexahistidine tag at the N-terminus; hexahistidine (N); made in house; host or cells: Escherichia coli
Briefly: human IDO1 biochemical assay (NFK GreenScreen).

Experiment [2] addresses T2, A375 + IFNγ (hIDO1) (Homo sapiens, UniProt P14902).
T2 construct: host or cells: A375 cells stimulated with IFNγ
In words: cell-based assay, Trp-catabolizing activity in IFNγ-stimulated A375 cells. The following applies: IFNγ-stimulated A375 human melanoma cells.

Experiment [3] concerns the target T3, human TDO (Homo sapiens, UniProt P48775).
T3 construct: hexahistidine (C); made in house; host or cells: Escherichia coli
Briefly: human TDO biochemical assay (NFK GreenScreen). The settings on record: biochemical; highest tested concentration 31.6 µM. On the procedure:
Full-length recombinant human and mouse IDO1 were expressed in Escherichia coli with a hexahistidine tag at the N-terminus, and purified by affinity chromatography to > 95% purity, as described ([8]). Human and mouse TDO containing a C-terminal hexahistidine tag were analogously expressed and purified to > 95% purity ([8]). The inhibitory activity of compounds was determined with the NFK GreenScreen assay technology under the conditions as described ([8]), except for the reaction buffer for IDO1, which was replaced by 50 mM NaH2PO4, pH 7.0, supplemented with 0.01% Tween-20 and 1% glycerol. Inhibition of the CYP3A4 and CYP2D6 enzymes was determined with the P450-Glo™ Screening System with Luciferin-IPA (Promega, #V9920 and V9890). For determination of IC50 values, the effect of inhibitors was determined in 10-point duplicate dose-response curves. Graphs were fitted to a four-parameter logistics equation in XLfit (ID Business Solutions, Ltd., Guildford, UK) from which IC50 values were calculated.

In experiment [4] the test system is TDO. The following applies: cited from earlier work.
The test system of experiment [5] is IDO1. The following applies: cited from earlier work.
In experiment [6] the test system is CT26 cells implanted subcutaneously into female BALB/c mice. Briefly: CT26 mouse model, first study (ProQinase). The following applies: 50 mg/kg NTRC 3748-0 b.i.d., 100 mg/kg epacadostat q.d. Type of experiment: in vivo. On the procedure:
For the first CT26 mouse model study, performed at ProQinase, 5 × 10^5 CT26 cells were implanted subcutaneously into female BALB/c mice on day 0. […] Tumor growth was monitored using caliper measurement 2 times weekly. The study was terminated at day 22 based on the tumor burden. Tumors and plasma were sampled 2 h post last dose.
Tissues were homogenized in PBS at a ratio of 1 mg per 10 μl using micro pellet pestles mounted on a Micro-Tube Homogenizer System (Thomas Scientific). After centrifugation, proteins were removed from the homogenized tissue supernatants and plasma samples by precipitation with methanol. The concentrations of inhibitor, Trp and Kyn were determined by LC-MS/MS.

A value given as a limit tells only on which side of the number the result lay.

T1 sequence (P14902 whole entry): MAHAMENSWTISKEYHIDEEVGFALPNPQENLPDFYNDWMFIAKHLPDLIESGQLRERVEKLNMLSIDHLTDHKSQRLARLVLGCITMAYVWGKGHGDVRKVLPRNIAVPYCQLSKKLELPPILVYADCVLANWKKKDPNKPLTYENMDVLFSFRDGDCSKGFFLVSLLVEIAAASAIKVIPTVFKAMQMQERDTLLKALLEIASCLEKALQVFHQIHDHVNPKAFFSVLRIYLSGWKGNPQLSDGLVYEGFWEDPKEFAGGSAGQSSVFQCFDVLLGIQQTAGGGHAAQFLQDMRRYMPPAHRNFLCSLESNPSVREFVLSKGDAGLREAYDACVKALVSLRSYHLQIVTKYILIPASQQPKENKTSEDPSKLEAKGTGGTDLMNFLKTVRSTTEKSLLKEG
T2 sequence (P14902 whole entry): as above
T3 sequence (P48775 whole entry): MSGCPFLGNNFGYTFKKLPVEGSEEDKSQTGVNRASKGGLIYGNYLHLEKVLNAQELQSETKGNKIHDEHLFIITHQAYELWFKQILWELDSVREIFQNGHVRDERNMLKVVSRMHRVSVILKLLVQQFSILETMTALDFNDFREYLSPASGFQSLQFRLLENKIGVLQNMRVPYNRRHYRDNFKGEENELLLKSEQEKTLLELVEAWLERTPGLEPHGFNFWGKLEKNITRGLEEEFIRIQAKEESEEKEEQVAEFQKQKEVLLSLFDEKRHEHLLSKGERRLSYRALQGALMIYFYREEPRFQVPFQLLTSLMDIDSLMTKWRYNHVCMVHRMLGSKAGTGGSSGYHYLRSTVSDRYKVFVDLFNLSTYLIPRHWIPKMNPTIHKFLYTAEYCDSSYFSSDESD

In the case of `O=C1CN(C(=O)c2c(F)cccc2F)[C@@H](c2cccc(Br)c2)N1O` [Compound 3k], the IC50 was determined as 2170 nM in experiment [1] (human IDO1 biochemical assay) and 4590 nM in experiment [2].

Regarding `O=C1CN(C(=O)c2ccccc2)C(c2ccccc2Br)N1O` (centres unmarked) [Compound 2c], the IC50 in experiment [1] (human IDO1 biochemical assay) and in experiment [2] was > 31600 nM in each case.

For `O=C1CN(C(=O)c2ccc(F)cc2)C(c2cccc(Br)c2)N1O` (centres unmarked) [Compound 3a], the IC50 was 2170 nM in experiment [1] (human IDO1 biochemical assay) and 11000 nM in experiment [2].

Take `O=C1CN(C(=O)c2ccccc2)C(c2cccc(C(F)(F)F)c2)N1O` (centres unmarked) [Compound 2g]: the figures for the IC50 in experiment [1] (human IDO1 biochemical assay) and in experiment [2] were 2460 nM and 5290 nM, respectively.

For `O=C1CN(C(=O)c2cc(F)ccc2F)C(c2cccc(Br)c2)N1O` (centres unmarked) [Compound 3h], the IC50 in experiment [1] (human IDO1 biochemical assay) turned out to be 600 nM; in experiment [2], 2830 nM.

Take `O=C1CN(C(=O)c2ccccc2Br)C(c2cccc(Br)c2)N1O` (centres unmarked) [Compound 3g]: the IC50 in experiment [1] (human IDO1 biochemical assay) was 1780 nM; in experiment [2] it was 12500 nM.

As for `O=C1CN(C(=O)c2cccc(F)c2)C(c2cccc(Br)c2)N1O` (centres unmarked) [Compound 3b], the half-maximal inhibitory concentration (IC50) in experiment [1] (human IDO1 biochemical assay) is 910 nM; in experiment [2], 5240 nM.

On to `COc1ccccc1C(=O)N1CC(=O)N(O)C1c1cccc(Br)c1` (centres unmarked) [Compound 3e], for which the IC50 in experiment [1] (human IDO1 biochemical assay) and in experiment [2] was > 31600 nM throughout.

With `O=C1CN(C(=O)c2ccccc2)C(c2cccc(Cl)c2)N1O` (centres unmarked) [Compound 2b], the IC50 in experiment [1] (human IDO1 biochemical assay) came to 2380 nM; in experiment [2], 5220 nM.

In the case of `O=C1CN(C(=O)c2ccccc2)C(c2ccc(Br)cc2)N1O` (centres unmarked) [Compound 2d], the IC50 in experiment [1] (human IDO1 biochemical assay) and in experiment [2] was > 31600 nM in each case.

For `O=C1CN(C(=O)c2ccccc2Cl)C(c2cccc(Br)c2)N1O` (centres unmarked) [Compound 3f], the IC50 in experiment [1] (human IDO1 biochemical assay) stood at 784 nM; in experiment [2], 4600 nM.

As to `O=C1CN(C(=O)c2ccccc2)C(C2CCCCC2)N1O` (centres unmarked) [Compound 2e], the IC50 in experiment [1] (human IDO1 biochemical assay) and in experiment [2] was > 31600 nM each time.

`O=C1CN(C(=O)c2ccccc2)C(c2cccc(Br)c2)N1O` (centres unmarked) [Compound 1]: the IC50 in experiment [1] (biochemical) amounted to 1200 nM; in experiment [1] (human IDO1 biochemical assay), 1220 nM; in experiment [2], 4520 nM. Also, in experiment [3], the “activity on human TDO (in words)” value is “inactive”.

In the case of `O=C1CN(C(=O)c2ccccc2)C(c2ccccc2)N1O` (centres unmarked) [Compound 2a], the IC50 in experiment [1] (human IDO1 biochemical assay) and in experiment [2] was > 31600 nM each time.

Take `N[C@@H](Cc1c[nH]c2ccccc12)C(=O)O` [Trp, L-tryptophan]: the “K M,Trp of TDO” value in experiment [4] was 190 µM. In experiment [5], the “K M,Trp of IDO1” value is on record as 6 µM.

Consider `O=C1CN(C(=O)c2ccc(F)cc2F)C(c2cccc(Br)c2)N1O` (centres unmarked) [Compound 3i], for which the IC50 in experiment [1] (human IDO1 biochemical assay) came to 582 nM; in experiment [2], 2140 nM.

With `Cc1ccccc1C(=O)N1CC(=O)N(O)C1c1cccc(Br)c1` (centres unmarked) [Compound 3d], the IC50 in experiment [1] (human IDO1 biochemical assay) amounted to 4020 nM; in experiment [2], 21700 nM.

As to `O=C1CN(C(=O)c2ccccc2F)C(c2cccc(Br)c2)N1O` (centres unmarked) [Compound 3c], the values for the IC50 in experiment [1] (human IDO1 biochemical assay) and in experiment [2] were 479 nM and 1150 nM, respectively.

With `N#Cc1cccc(C2N(O)C(=O)CN2C(=O)c2ccccc2)c1` (centres unmarked) [Compound 2f], the IC50 is 17900 nM in experiment [1] (human IDO1 biochemical assay) and > 31600 nM in experiment [2].

For the compound `O=C1CN(C(=O)c2c(F)cccc2F)C(c2cccc(Br)c2)N1O` (centres unmarked) [Compound 3j], the IC50 in experiment [1] (human IDO1 biochemical assay) was determined as 198 nM; in experiment [2] it was 589 nM. For the same compound, in experiment [6] (LC-MS/MS, 2 h post last dose), the “Kyn levels in the tumor” value was “considerable reduction of Kyn levels”. Also, in experiment [6] (p.o. from day 8), the tumor growth entry is listed as “inhibition of tumor growth”.
